{"source": "patent US20100267626A1", "about": "“METHODS AND COMPOSITIONS FOR MEASURING WNT ACTIVATION AND FOR TREATING WNT-RELATED CANCERS” (Novartis AG, priority 2007, published 2010)", "key": {"[1]": {"test_system": "Wnt3A stimulated STF activity", "experiment": "Wnt-responsive Super-Topflash (STF) luciferase reporter assay in HEK293 cells", "type": "cell-based"}, "DLD-1 cells": {"test_system": "DLD-1 cells", "experiment": "Colony formation assay, DLD-1 cells", "type": "cell-based", "conditions": "low serum growth conditions", "description": "FIG. 6A. […] DLD1 and RKO cells were seeded at […] in a 6-well plate in medium containing 0.5% serum and indicated compounds, and replenished with fresh medium every two days. Colonies were visualized by crystal violet staining.\nFIG. 6B. […] DLD1 cells were transfected with siRNAs against Axin1 and Axin2, and seeded at 1000 cells/well in a 6-well plate. The compound treatment was carried out as described in 6A.\n(§1) The colony formation assay was performed as follows: DLD1 and RKO cells were seeded in low serum growth medium (0.5% FBS) at 500 and 1000 cells/well, respectively, into […]. Sixteen hours after plating, compounds were added at the indicated concentrations. Medium was replenished every two days until colony formation was observed. Colonies were stained by a solution of 2 mg/ml crystal violet in buffered formalin and imaged on a Molecular Imager ChemiDoc XRS System (BioRad)."}, "TNKS": {"test_system": "TNKS", "conditions": "doses 1 nM to 100 μM"}, "PARP1/2": {"test_system": "PARP1/2", "experiment": "Dose response compound competition experiment (immunoblot)", "conditions": "doses 1 nM to 100 μM"}, "[2]": {"molecular_target": "C-terminal PARP domain of TNKS2 (GST-TNKS2 PARP) (Homo sapiens, UniProt Q9H2K2)", "sequence (Q9H2K2 934-1166)": "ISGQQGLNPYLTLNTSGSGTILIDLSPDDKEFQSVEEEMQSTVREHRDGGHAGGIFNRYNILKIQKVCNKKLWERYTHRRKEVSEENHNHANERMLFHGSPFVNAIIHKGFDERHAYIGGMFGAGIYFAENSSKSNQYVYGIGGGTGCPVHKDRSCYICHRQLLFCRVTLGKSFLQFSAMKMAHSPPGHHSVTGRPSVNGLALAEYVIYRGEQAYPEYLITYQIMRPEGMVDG", "experiment": "In vitro auto-PARsylation assay of TNKS2"}, "Axin1 and Axin2 [3]": {"test_system": "Axin1 and Axin2", "experiment": "Axin ubiquitination in SW480 cells (immunoprecipitation/immunoblot)", "type": "cell-based, human", "from_the_text": "The position that Axin1 migrates is labeled with an arrow.\nFIG. 5E. […] (IP: immunoprecipitation, TCL: total cell lysates)"}, "β-catenin [4]": {"test_system": "β-catenin", "experiment": "Immunoblot of cytosolic β-catenin in Wnt3A stimulated HEK293 cells", "type": "cell-based"}, "[5]": {"test_system": "Axin1 and Axin2 transcript", "experiment": "Axin transcript levels (quantitative RT-PCR)", "conditions": "after compound treatment"}, "[6]": {"test_system": "NF-κB luciferase reporter", "experiment": "NF-κB luciferase reporter in HEK293 cells (TNFα activated)", "type": "cell-based"}, "TGFβ luciferase reporter": {"test_system": "TGFβ luciferase reporter", "experiment": "TGFβ (CAGA12) luciferase reporter in HEK293 cells", "type": "cell-based"}, "Axin1 and Axin2 [7]": {"test_system": "Axin1 and Axin2", "experiment": "Immunoblot of Axin protein levels after compound treatment", "type": "cell-based, human", "conditions": "after XAV939 treatment"}, "CRE luciferase reporter": {"test_system": "CRE luciferase reporter", "experiment": "CRE luciferase reporter in HEK293 cells (Forskolin activated)", "type": "cell-based"}, "RKO cells": {"test_system": "RKO cells", "experiment": "Colony formation assay, RKO cells", "type": "cell-based", "conditions": "low serum growth conditions, β-catenin independent cells", "description": "[…]. DLD1 and RKO cells were seeded at 500 cells/well in a 6-well plate in medium containing 0.5% serum and indicated compounds, and replenished with fresh medium every two days. Colonies were visualized by crystal violet staining.\nas §1"}, "[8]": {"test_system": "cell lines used in this study", "experiment": "Mitotic arrest phenotype in cell lines", "type": "cell-based", "conditions": "low or high serum conditions", "from_the_text": "TNKS1/TNKS2 have been described to regulate mitotic progression, telomere maintenance, and GLUT4 transport. (Canudas, S., et al. (2007) Embo J 26, 4867-78 (2007); Seimiya, H., et al. (2002) J Biol Chem 277, 14116-26) In particular, TNKS1 was proposed to be required for the resolution of sister telomere association or assembly of bipolar spindles, and TNKS1 knockdown was reported to cause strong mitotic arrest."}, "GFP-Axin": {"test_system": "GFP-Axin", "experiment": "PARsylation of exogenously expressed GFP-Axin in cells", "type": "cell-based, mouse", "conditions": "anti-PAR antibody", "description": "FIG. 5D. In vivo PARsylation of Axin1. SW480 cells stably expressing GFP-Axin1 under control of the metallothionein promoter were incubated with Cu^2+ overnight to induce expression of GFP-Axin1. […] Lysates were harvested with RIPA buffer containing PARG inhibitor ADP-HPD (5 μM) and PARP1 inhibitor PJ34 (80 μM), immunoprecipitated with GFP antibody and analyzed by immunoblotting.\nThe SuperTopFlash (STF) methods described in at least Example 1 employed plasmids manufactured as follows: SuperTopflash reporter was generated by inserting twelve TCF binding sites into pTA-Luc (Clontech). Mouse Axin1 and its mutants were fused with either GFP or FLAG epitope at the amino termini and cloned into a retroviral vector under the control of the metallothionein promoter. Human TNKS1/2 and their mutants were tagged with FLAG epitope fused at the amino termini and cloned into a mammalian expression vector under the control of the cytomegalovirus (CMV) promoter. Drosophila Axin fused with three HA epitopes at the carboxyl terminus was cloned in a Drosophila expression vector under the control of the metallothionein promoter. A sequence encoding the amino terminal fragment of mouse Axin1 (a.a. 1-87) was cloned in a Tet-regulated expression vector pcDNA4-TO (Invitrogen). […]"}, "Axin2": {"test_system": "Axin2", "experiment": "PARsylation of endogenous Axin2 in compound wash-off experiment", "conditions": "MG132 plus XAV939"}, "β-catenin [9]": {"test_system": "β-catenin", "experiment": "Immunoblot of β-catenin and phospho-β-catenin in SW480 cells", "type": "cell-based, human"}, "PARP2": {"molecular_target": "PARP2 (Homo sapiens, UniProt Q9UGN5)", "sequence (Q9UGN5 whole entry)": "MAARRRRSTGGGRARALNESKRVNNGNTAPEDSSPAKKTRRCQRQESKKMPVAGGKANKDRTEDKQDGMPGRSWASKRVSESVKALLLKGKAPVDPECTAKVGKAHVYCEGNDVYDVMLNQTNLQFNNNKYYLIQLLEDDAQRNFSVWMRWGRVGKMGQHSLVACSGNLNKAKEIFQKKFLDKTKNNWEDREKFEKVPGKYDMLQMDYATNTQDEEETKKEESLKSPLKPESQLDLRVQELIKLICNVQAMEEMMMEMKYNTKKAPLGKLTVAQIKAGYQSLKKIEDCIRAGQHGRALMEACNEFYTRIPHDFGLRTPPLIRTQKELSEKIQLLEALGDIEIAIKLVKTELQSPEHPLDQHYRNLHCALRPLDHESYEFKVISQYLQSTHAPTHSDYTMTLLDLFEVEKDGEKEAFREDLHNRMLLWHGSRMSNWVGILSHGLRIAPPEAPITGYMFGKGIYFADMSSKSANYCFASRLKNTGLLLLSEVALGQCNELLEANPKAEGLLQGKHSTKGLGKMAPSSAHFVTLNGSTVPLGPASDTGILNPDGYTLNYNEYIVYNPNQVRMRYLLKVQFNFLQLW", "experiment": "iTRAQ quantitative chemical proteomics competition, HEK293 cell lysates", "type": "binding", "conditions": "20 μM soluble compound, relative to DMSO"}, "GFP-Axin1": {"test_system": "GFP-Axin1", "experiment": "GFP-Axin1 fusion construct protein levels in SW480 cell lines", "type": "cell-based, mouse", "from_the_text": "FIG. 4E. The TNKS binding domain is required for XAV939-induced Axin1 protein accumulation. […] Total cell lysates were harvested and analyzed by immunoblotting.\nThe SuperTopFlash (STF) methods described in at least Example 1 employed plasmids manufactured as follows: SuperTopflash reporter was generated by inserting twelve TCF binding sites into pTA-Luc (Clontech). Mouse Axin1 and its mutants were fused with either GFP or FLAG epitope at the amino termini and cloned into a retroviral vector under the control of the metallothionein promoter. Human TNKS1/2 and their mutants were tagged with FLAG epitope fused at the amino termini and cloned into a mammalian expression vector under the control of the cytomegalovirus (CMV) promoter. Drosophila Axin fused with three HA epitopes at the carboxyl terminus was cloned in a Drosophila expression vector under the control of the metallothionein promoter. A sequence encoding the amino terminal fragment of mouse Axin1 (a.a. 1-87) was cloned in a Tet-regulated expression vector pcDNA4-TO (Invitrogen). Several proteins were cloned using Gateway technology (Invitrogen) into the expression vector pDEST15 (Invitrogen, Carlsbad, Calif.): TNKS1-P(1088-1327), TNKS2-P(934-1166), TNKS2-SP (872-1166), PARP1-P (662-1014) and PARP16-P (93-273).\nThe functional consequences of disrupting the physical interaction between Axin and TNKS were assessed. […]. […] […]."}, "Axin-GSK3β complex": {"test_system": "Axin-GSK3β complex", "experiment": "Axin-GSK3β complex formation"}, "[10]": {"conditions": "wash-off experiment, MG132 alone"}}, "note": "Peptide text beside a SMILES is read from it. * marks the point of attachment. Cbz = O=C(OCc1ccccc1)*", "data": [{"smiles": "CC(=O)N1CCc2nc(-c3ccc(C(F)(F)F)cc3)[nH]c(=O)c2C1", "note": "[LDW643]", "values": [{"measurement": "Wnt3A stimulated STF activity", "setting": "[1]", "value": "no activity"}, {"measurement": "colony formation of DLD-1 cells", "setting": "DLD-1 cells", "value": "did not affect"}, {"measurement": "activity in compound competition, TNKS binding", "setting": "TNKS", "value": "no activity"}, {"measurement": "activity in compound competition, PARP1/2 binding", "setting": "PARP1/2", "value": "no activity"}, {"measurement": "auto-PARsylation of GST-TNKS2 PARP", "setting": "[2]", "value": "not affected"}]}, {"smiles": "CC(C)C[C@@H](C=O)NC(=O)[C@H](CC(C)C)NC(=O)[C@H](CC(C)C)NC(=O)OCc1ccccc1", "note": "[MG132] (Cbz-Leu-Leu-Leu-aldehyde)", "values": [{"measurement": "poly-ubiquitination of Axin1", "setting": "Axin1 and Axin2 [3]; MG132 alone", "value": "increased significantly"}, {"measurement": "Axin2 degradation after XAV939 wash-off", "setting": "Axin1 and Axin2 [3]; [10]", "value": "blocked"}, {"measurement": "Axin2 poly-ubiquitination after XAV939 wash-off", "setting": "Axin1 and Axin2 [3]; [10]", "value": "strongly increased"}]}, {"smiles": "Oc1nc(-c2ccc(C(F)(F)F)cc2)nc2c1CSCC2", "note": "[XAV939]", "values": [{"measurement": "Wnt3A-induced accumulation of β-catenin", "setting": "β-catenin [4]", "value": "block"}, {"measurement": "transcript levels of Axin1 and Axin2", "setting": "[5]", "value": "unaffected"}, {"measurement": "colony formation of DLD-1 cells", "setting": "DLD-1 cells", "value": "significantly inhibited"}, {"measurement": "effect on NF-κB luciferase reporter", "setting": "[6]", "value": "did not affect"}, {"measurement": "effect on TGFβ luciferase reporter", "setting": "TGFβ luciferase reporter", "value": "did not affect"}, {"measurement": "protein levels of Axin1 and Axin2", "setting": "Axin1 and Axin2 [7]", "value": "strongly increased"}, {"measurement": "Axin1 and Axin2 poly-ubiquitination", "setting": "Axin1 and Axin2 [3]; co-treatment of XAV939 with MG132", "value": "significantly diminished"}, {"measurement": "ubiquitination of Axin2", "setting": "Axin1 and Axin2 [3]; wash-off experiment, co-treatment with XAV939 and MG132", "value": "completely blocked"}, {"measurement": "effect on CRE luciferase reporter", "setting": "CRE luciferase reporter", "value": "did not affect"}, {"measurement": "colony formation in RKO cells", "setting": "RKO cells", "value": "did not affect"}, {"measurement": "mitotic arrest phenotype", "setting": "[8]", "value": "did not result in any overt mitotic arrest phenotype"}, {"measurement": "PARsylation signal of GFP-Axin in cells", "setting": "GFP-Axin", "value": "strongly reduced"}, {"measurement": "anti-PAR antibody reactive signal co-migrating with Axin2", "setting": "Axin2", "value": "disappeared"}, {"measurement": "β-catenin abundance", "setting": "β-catenin [9]", "value": "decreased"}, {"measurement": "β-catenin phosphorylation (S33/S37/T41)", "setting": "β-catenin [9]", "value": "significantly increased"}, {"measurement": "binding displacement (% competition) PARP2", "setting": "PARP2", "value": 88, "unit": "%"}, {"measurement": "GFP-Axin1Δ19-30 protein levels", "setting": "GFP-Axin1; cells expressing GFP-Axin1Δ19-30 (TBD deleted)", "value": "did not further respond"}, {"measurement": "wild-type GFP-Axin1 protein levels", "setting": "GFP-Axin1; cells expressing wild-type GFP-Axin1", "value": "strongly increased"}, {"measurement": "Axin-GSK3β complex formation", "setting": "Axin-GSK3β complex", "value": "strong increase"}]}]}
